pIC50: −log10 of the molar value.
Target: T1, human LXRβ (Homo sapiens, UniProt P55055)
T1 construct: biotin (biotinylated); made in house; host or cells: E. coli
T1 sequence (P55055 1-460): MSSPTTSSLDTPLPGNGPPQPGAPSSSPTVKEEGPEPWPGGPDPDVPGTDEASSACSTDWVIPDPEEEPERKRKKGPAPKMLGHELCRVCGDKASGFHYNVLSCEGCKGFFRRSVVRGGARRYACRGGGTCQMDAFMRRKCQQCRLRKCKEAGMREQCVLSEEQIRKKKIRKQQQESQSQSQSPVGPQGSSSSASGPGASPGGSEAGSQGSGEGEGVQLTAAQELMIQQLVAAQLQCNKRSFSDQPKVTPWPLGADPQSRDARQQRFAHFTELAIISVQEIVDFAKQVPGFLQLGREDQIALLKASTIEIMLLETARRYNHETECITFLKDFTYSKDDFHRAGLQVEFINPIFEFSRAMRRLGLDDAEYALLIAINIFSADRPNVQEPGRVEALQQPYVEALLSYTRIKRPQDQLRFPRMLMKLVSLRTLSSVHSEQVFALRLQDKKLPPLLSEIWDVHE
Test: Ligand-binding test procedure for human LXRβ (3H T0901317 tracer, flash plates)
Settings: biotinylated hLXRβ, tracer 3H T0901317, +4° C. over night
Procedure: I. Ligand-Binding Test Procedure for Human LXRβ.
Receptor source: E. coli extracted from cells expressing biotinylated hLXRβ. Extract was made in a similar buffer as above, but with 50 mM TRIS.
Washed streptavidin and coated flash plates with wash buffer. Diluted receptor extract to give Bmax˜4000 cpm and add to the wells. Wrapped the plates in aluminum foil and stored them at +4° C. overnight.
Made a dilution series in DMSO of the test ligands. Made a 5 nM solution of the radioactive tracer in buffer. Mixed 250 μl diluted tracer with 5 μl of the test ligand from each concentration of the dilution series. Washed the receptor-coated flash plates. Added 200 μl per well of the ligand/radiolabel mixture to the receptor-coated flash plates. Wrapped the plates in aluminum foil and incubate at +4° C. over night.
Aspirated wells, and washed the flashed plates. Sealed the plate.
Measured the remaining radioactivity in the plate.

Structure (SMILES)	pIC50
CS(=O)(=O)c1cccc(Oc2cccc(-c3cnc4cccc(Cl)c4n3)c2)c1 [Example 13, 8-chloro-2-{3-[3-(methylsulfonyl)phenoxy]phenyl}quinoxaline]	< 6.00
CS(=O)(=O)c1cccc(Oc2cccc(-c3cnc4c(C(F)(F)F)cccc4n3)c2)c1 [Example 14, 2-{3-[3-(methylsulfonyl)phenoxy]phenyl}-5-(trifluoromethyl)quinoxaline]	< 6.00
CCS(=O)(=O)c1cccc(Oc2ccc(-c3nc4c(C(F)(F)F)cccc4nc3C)cc2)c1 [Example 15, 3-{4-[3-(ethylsulfonyl)phenoxy]phenyl}-2-methyl-5-(trifluoromethyl)quinoxaline]	< 6.00
CCS(=O)(=O)c1cccc(Oc2cccc(-c3cnc4cccc(C(F)(F)F)c4n3)c2)c1 [Example 16, 2-{3-[3-(ethylsulfonyl)phenoxy]phenyl}-8-(trifluoromethyl)quinoxaline]	< 6.00
CC(C)CS(=O)(=O)c1cccc(Oc2cccc(-c3cnc4cccc(C(F)(F)F)c4n3)c2)c1 [Example 17, 2-{3-[3-(isobutylsulfonyl)phenoxy]phenyl}-8-(trifluoromethyl)quinoxaline]	< 6.00
CS(=O)(=O)c1cccc(-c2ccc(-c3cnc4c(C(F)(F)F)cccc4n3)cc2)c1 [Example 22, 2-[3′-(methylsulfonyl)biphenyl-4-yl]-5-(trifluoromethyl)quinoxaline]	< 6.00
CS(=O)(=O)c1ccc(-c2ccc(-c3cnc4cccc(C(F)(F)F)c4n3)cc2)cc1 [Example 23, 2-[4′-(methylsulfonyl)biphenyl-4-yl]-8-(trifluoromethyl)quinoxaline]	< 6.00
CS(=O)(=O)c1ccccc1-c1ccc(-c2cnc3cccc(C(F)(F)F)c3n2)cc1 [Example 24, 2-[2′-(methylsulfonyl)biphenyl-4-yl]-8-(trifluoromethyl)quinoxaline]	< 6.00
CS(=O)(=O)c1cccc(-c2ccc(-c3cnc4cccc(C(F)(F)F)c4n3)cc2)c1 [Example 25, 2-[3′-(methylsulfonyl)biphenyl-4-yl]-8-(trifluoromethyl)quinoxaline]	< 6.00
CS(=O)(=O)c1cccc(-c2ccc(-c3nc4ccccc4nc3C(F)(F)F)cc2)c1 [Example 26, 2-[3′-(methylsulfonyl)biphenyl-4-yl]-3-(trifluoromethyl)quinoxaline]	< 6.00
CS(=O)(=O)c1cccc(Oc2ccc(-c3nc4ccccc4nc3C(F)(F)F)cc2)c1 [Example 27, 2-{4-[3-(methylsulfonyl)phenoxy]phenyl}-3-(trifluoromethyl)quinoxaline]	< 6.00
Cc1nc2cccc(C(F)(F)F)c2nc1-c1ccc(Oc2cccc(S(C)(=O)=O)c2)cc1F [Example 29, 3-{2-fluoro-4-[3-(methylsulfonyl)phenoxy]phenyl}-2-methyl-5-(trifluoromethyl)quinoxaline]	< 6.00
Cc1nc2c(C(F)(F)F)cccc2nc1-c1ccc(Oc2cccc(S(C)(=O)=O)c2)cc1F [Example 30, 2-{2-fluoro-4-[3-(methylsulfonyl)phenoxy]phenyl}-3-methyl-5-(trifluoromethyl)quinoxaline]	< 6.00
Cc1nc2c(Cl)ccc(Cl)c2nc1-c1ccc(-c2cccc(S(C)(=O)=O)c2)cc1 [Example 35, 5,8-dichloro-2-methyl-3-[3′-(methylsulfonyl)biphenyl-4-yl]quinoxaline]	7.00
Cc1nc2cccc(C(F)(F)F)c2nc1-c1cc(Oc2ccc(S(=O)(=O)CC#N)cc2)ccc1Cl [Example 38, [(4-{4-chloro-3-[3-methyl-8-(trifluoromethyl)quinoxalin-2-yl]phenoxy}phenyl)sulfonyl]-acetonitrile]	< 6.00
Cc1nc2cccc(C(F)(F)F)c2nc1-c1cc(Oc2ccc(S(C)(=O)=O)cc2)ccc1Cl [Example 39, 3-{2-chloro-5-[4-(methylsulfonyl)phenoxy]phenyl}-2-methyl-5-(trifluoromethyl)quinoxaline]	< 6.00
Cc1nc2c(C(F)(F)F)cccc2nc1-c1cc(Oc2cccc(S(C)(=O)=O)c2)ccc1-c1ccccc1 [Example 40, 3-methyl-2-{4-[3-(methylsulfonyl)phenoxy]biphenyl-2-yl}-5-(trifluoromethyl)quinoxaline]	< 6.00
Cc1nc2c(C(F)(F)F)cccc2nc1-c1cc(Oc2ccc(S(=O)(=O)CC#N)cc2)ccc1Cl [Example 41, [(4-{4-chloro-3-[3-methyl-5-(trifluoromethyl)quinoxalin-2-yl]phenoxy}phenyl)sulfonyl]-acetonitrile]	< 6.00
Cc1nc2cccc(C(F)(F)F)c2nc1-c1cc(Oc2ccccc2S(C)(=O)=O)ccc1Cl [Example 44, 3-{2-chloro-5-[2-(methylsulfonyl)phenoxy]phenyl}-2-methyl-5-(trifluoromethyl)quinoxaline]	< 6.00
Cc1nc2c(C(F)(F)F)cccc2nc1-c1cc(Oc2cccc(S(=O)(=O)CCCN)c2)ccc1Cl [Example 45, 3-[(3-{4-chloro-3-[3-methyl-5-(trifluoromethyl)quinoxalin-2-yl]phenoxy}phenyl)sulfonyl]-propan-1-amine]	7.20
Cc1nc2c(C(F)(F)F)cccc2nc1-c1ccc(-c2ccc(C(=O)N3CCCC3)cc2)cc1 [Example 54, 3-methyl-2-[4′-(pyrrolidin-1-ylcarbonyl)biphenyl-4-yl]-5-(trifluoromethyl)quinoxaline]	< 6.00
Cc1nc2c(C(F)(F)F)cccc2nc1-c1ccc(-c2ccc(CCC(=O)O)cc2)cc1 [Example 55, 3-{4′-[3-methyl-5-(trifluoromethyl)quinoxalin-2-yl]biphenyl-4-yl}propanoic acid]	< 6.00
COc1cccc2nc(C)c(-c3ccc(-c4cccc(S(C)(=O)=O)c4)cc3)nc12 [Example 69, 5-methoxy-2-methyl-3-[3′-(methylsulfonyl)biphenyl-4-yl]quinoxaline]	< 6.00

Continued, values first:

pIC50	Structure (SMILES)
< 6.00	Cc1nc2c(C(F)(F)F)cccc2nc1-c1ccc(-c2ccc(S(C)(=O)=O)cc2)cc1 [Example 18, 3-methyl-2-[4′-(methylsulfonyl)biphenyl-4-yl]-5-(trifluoromethyl)quinoxaline]
< 6.00	Cc1nc2c(C(F)(F)F)cccc2nc1-c1cccc(-c2cccc(S(C)(=O)=O)c2)c1 [Example 19, 3-methyl-2-[3′-(methylsulfonyl)biphenyl-3-yl]-5-(trifluoromethyl)quinoxaline]
< 6.00	Cc1nc2c(C(F)(F)F)cccc2nc1-c1cccc(-c2ccc(S(C)(=O)=O)cc2)c1 [Example 20, 3-methyl-2-[4′-(methylsulfonyl)biphenyl-3-yl]-5-(trifluoromethyl)quinoxaline]
< 6.00	Cc1nc2c(C(F)(F)F)cccc2nc1-c1ccc(-c2ccccc2S(C)(=O)=O)cc1 [Example 21, 3-methyl-2-[2′-(methylsulfonyl)biphenyl-4-yl]-5-(trifluoromethyl)quinoxaline]
< 6.00	Cc1nc2c(C(F)(F)F)cccc2nc1-c1ccc(-c2cccc(S(C)(=O)=O)c2)cc1F [Example 28, 2-[3-fluoro-3′-(methylsulfonyl)biphenyl-4-yl]-3-methyl-5-(trifluoromethyl)quinoxaline]
6.14	CS(=O)(=O)c1cccc(-c2ccc(-c3nc4cccc(C(F)(F)F)c4nc3N)cc2)c1 [Example 33, 3-[3′-(methylsulfonyl)biphenyl-4-yl]-8-(trifluoromethyl)quinoxalin-2-amine]
6.45	CCc1nc2cccc(C(F)(F)F)c2nc1-c1ccc(-c2cccc(S(C)(=O)=O)c2)cc1 [Example 34, 2-ethyl-3-[3′-(methylsulfonyl)biphenyl-4-yl]-5-(trifluoromethyl)quinoxaline]
< 6.00	Cc1nc2cccc(C(F)(F)F)c2nc1-c1ccc(-c2cccc(NS(C)(=O)=O)c2)cc1 [Example 47, N-{4′-[3-methyl-8-(trifluoromethyl)quinoxalin-2-yl]biphenyl-3-yl}methanesulfonamide]
5.96	CNS(=O)(=O)c1cccc(-c2ccc(-c3nc4c(C(F)(F)F)cccc4nc3C)cc2)c1 [Example 48, N-methyl-4′-[3-methyl-8-(trifluoromethyl)quinoxalin-2-yl]biphenyl-3-sulfonamide]
< 6.00	Cc1nc2c(C(F)(F)F)cccc2nc1-c1ccc(-c2cccc(NS(C)(=O)=O)c2)cc1 [Example 49, N-{4′-[3-methyl-5-(trifluoromethyl)quinoxalin-2-yl]biphenyl-3-yl}methanesulfonamide]
< 6.00	Cc1nc2c(C(F)(F)F)cccc2nc1-c1ccc(-c2cccc(C(N)=O)c2)cc1 [Example 50, 4′-[3-methyl-5-(trifluoromethyl)quinoxalin-2-yl]biphenyl-3-carboxamide]
< 6.00	CC(=O)Nc1cccc(-c2ccc(-c3nc4cccc(C(F)(F)F)c4nc3C)cc2)c1 [Example 51, N-{4′-[3-methyl-5-(trifluoromethyl)quinoxalin-2-yl]biphenyl-3-yl}acetamide]
< 6.00	CNC(=O)c1cccc(-c2ccc(-c3nc4cccc(C(F)(F)F)c4nc3C)cc2)c1 [Example 52, N-methyl-4′-[3-methyl-5-(trifluoromethyl)quinoxalin-2-yl]biphenyl-3-carboxamide]
